# From US20240368566A1, “PYK2-DERIVED PEPTIDES FOR INHIBITING INVADOPODIA-MEDIATED CANCER METASTASIS” (BAR-ILAN UNIVERSITY, priority 2023, published 2024)
# Columns and labels:
# [1] = test system: MDA-MB-231 cells; assay: ECM degradation assay; format: cell-based, human; conditions: 24 h on fluorescent fibronectin/gelatin matrix; compared to control peptide
# Protocol: The in vitro matrix degradation assay was performed as described in Genna et al., 2018 (supra). Briefly, MatTek dishes were treated with 2.5% gelatin/2.5% sucrose, cross-linked with 0.5% glutaraldehyde, treated with 10 μg/ml of fluorescently labeled fibronectin (Alexa 568; Invitrogen, Thermo Fischer Scientific), and then with 1 mg/ml NaBH4 in PBS. 125,000 cells were plated on the fibronectin/gelatin matrix in Pyk2-PRR or control peptides and allowed to degrade for 24 h. Cells were then fixed in 3.7% paraformaldehyde, and random fields were imaged using an inverted fluorescent microscope (Leica AF6000; 40×, NA 1.3, oil objective). ECM degradation was analyzed by quantifying the average degraded area in pixels per field using ImageJ.
# [2] = target: T1, cortactin SH3 domain (Mus musculus, UniProt Q60598); assay: NMR affinity determination, binding of peptides to purified cortactin-SH3; conditions: binding to cortactin SH3 in vitro
# T1 construct: nucleotides1468-1641); 6xHis (N, cleaved yes); made in house; host or cells: E. coli BL21 (DE3)
# T1 sequence (Q60598 490-546): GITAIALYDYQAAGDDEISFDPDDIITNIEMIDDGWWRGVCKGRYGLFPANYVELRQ
# Protocol: The DNA sequence encoding the SH3 domain of the mouse cortactin SH3 domain (GenBank ID U03184; nucleotides1468-1641) was sub-cloned into a pET-28a plasmid (Novagen, Merck) in frame with the cleavable N-terminal 6×His tag. Isotopically labeled cortactin-SH3 for heteronuclear NMR experiments was expressed in transformed E. coli BL21 cells (DE3) grown in the presence of kanamycin (50 mg/1) and chloramphenicol (34 mg/1) at 37° C. in M9 minimal medium. For ^15N (^13C) labeling the medium contained 1 g/L of ^15NH4Cl (4 g/L ^13C6-glucose), and 0.25 g/l of appropriately labeled Celtone Base Powder (Cambridge Isotope Laboratories, Andover, MA) was added. For triple-labeled ^2H,^13C,^15N—SH3, expression began in 100 ml of the above medium grown to an OD600 of 0.4-0.5 and gently centrifuged. Pellets were then resuspended in 500 ml filter-sterilized D20-based ^15N-M9 supplemented with ^2H7-^13C6-glucose (2 g/1) and DCN-Isogro (0.25 g/1) to reach a final OD600 of −0.1. In both cases cells were then grown at 37° C. and induced with 0.5 mM isopropyl β-D-1-thiogalactopyranoside (IPTG) upon reaching OD600-0.8, followed by overnight growth at 27° C. To purify the SH3 domain, cells were harvested by centrifugation, subjected to a single freeze-thaw cycle, and resuspended in lysis buffer (50 mM NaPi pH 8.0, 300 mM NaCl, 1 mM dithiothreitol (DTT), 100 ml per liter of culture) supplemented with 1 tablet EDTA-free protease inhibitor cocktail (Merck) and benzamidine (5 mM). Cells were lysed by French press, followed by addition of benzamidine (final concentration 10 mM) and phenylmethylsulfonyl fluoride (PMSF, 1 mM), and the lysate was clarified by centrifugation. The supernatant was loaded on a HisTrap HP column (GE Healthcare, Chicago, IL, USA) equilibrated with lysis buffer and the protein eluted through a gradient (Buffer B: 50 mM NaPi pH 8.0, 100 mM NaCl, 300 mM imidazole, 1 mM DTT). To the fraction eluting at ˜40% B purified tobacco etch virus (TEV) protease (1:30 mol:mol) was added, and the mixture dialyzed overnight at 4° C. against dialysis buffer (50 mM NaPi at pH 8.0, 100 mM NaCl, 1 mM DTT). The dialysate was brought to a final concentration of ˜5 mM imidazole, filtered, and loaded onto a HisTrap column. The collected flowthrough was dialyzed against 20 mM Tris (pH 7.5), 1 mM DTT for 3 h to reach a final concentration of 10 mM NaCl. […]
# Purified SH3 was dialyzed against NMR sample buffer (30 mM NaPi, pH ˜6.5) and concentrated to the desired concentration in an Amicon concentration tube (3 kDa MWCO) (Merck). […] For quantitative titrations, purchased peptides were dissolved in 100-300 μl NMR sample buffer, and samples at varying (SH3:PRR2 1:0-1:6, SH3 concentration constant at 0.1 mM) ratios were prepared. Fittings were performed with 5-6 measured points. […]
structure (smiles),measurement,setting,value
"C[C@H](NC(=O)[C@@H](N)[C@@H](C)O)C(=O)N[C@@H](Cc1ccccc1)C(=O)N[C@@H](CCC(N)=O)C(=O)N[C@@H](CCC(=O)O)C(=O)N1CCC[C@H]1C(=O)N1CCC[C@H]1C(=O)N1CCC[C@H]1C(=O)N[C@@H](CCCCN)C(=O)N1CCC[C@H]1C(=O)N[C@@H](CO)C(=O)N[C@@H](CCCNC(=N)N)C(=O)N1CCC[C@H]1C(=O)N[C@@H](CCCCN)C(=O)N[C@@H](Cc1ccc(O)cc1)C(=O)N[C@@H](CCCNC(=N)N)C(=O)N1CCC[C@H]1C(=O)N1CCC[C@H]1C(=O)N1CCC[C@H]1C(=O)O [Pyk2-PRR2, TAFQEPPPKPSRPKYRPPP]",matrix degradation (degradation area),[1],significant decrease
same,higher affinity than Pyk2-PRR3,[2],16 fold
